Data taken from patent US20250082674A1, “METHODS OF TREATING COPPER METABOLISM-ASSOCIATED DISEASES OR DISORDERS” (priority 2021, published 2025).
Like-named read-outs stand apart in the source and are kept apart here.

Legend:
[1] = test system: patients with Wilson disease (WD); conditions: for Transformed CGI-I Mean (SD): scores −3 (Very much improved) to 3 (Very much worse)
From the text: Dose modification, if required, was made as described herein.

[2] = test system: albumin levels
From the text: Across the 301, 201, and 205 studies, 102 participants had cirrhosis at baseline.

Question: Bis-choline tetrathiomolybdate [BC-TTM] was tested. Which “UWDRS Part II (0-40) Mean (SD) change from baseline” value ([1]; Week 120) did it give?
Answer: The value was −1.4 (3.48).

Question: What about the “UWDRS Part III (0-175) LSM (SE) change from baseline” value ([1]; Week 120) of the same substance?
Answer: Its value is −5.27 (1.016).

Question: What about the “UWDRS Part III (0-175) Mean (SD) change from baseline” value ([1]; Week 120) of the same substance?
Answer: Its value is −4.08 (11.618).

Question: What about the “UWDRS Part III functional subscale (0-10) LSM (SE) change from baseline” value ([1]; Week 120) of the same substance?
Answer: The value was −0.392 (0.0952).

Question: And the “UWDRS Part III functional subscale (0-10) Mean (SD) change from baseline” value ([1]; Week 120)?
Answer: Its value is −0.410 (1.1867).

Question: What about the “UWDRS Part III-arising from chair (0-4) LSM (SE) change from baseline” value ([1]; Week 120) of the same substance?
Answer: The value was −0.1 (0.06).

Question: And the “UWDRS Part III-arising from chair (0-4) Mean (SD) change from baseline” value ([1]; Week 120)?
Answer: The value was −0.2 (0.83).

Question: What about the “UWDRS Part III-gait (0-4) LSM (SE) change from baseline” value ([1]; Week 120) of the same substance?
Answer: The value was 0.04 (0.172).

Question: What about the “UWDRS Part III-gait (0-4) Mean (SD) change from baseline” value ([1]; Week 120) of the same substance?
Answer: Its value is 0.26 (1.683).

Question: And the “UWDRS Part III-handwriting (0-4) LSM (SE) change from baseline” value ([1]; Week 120)?
Answer: The value was −0.3 (0.07).

Question: What about the “UWDRS Part III-handwriting (0-4) Mean (SD) change from baseline” value ([1]; Week 120) of the same substance?
Answer: Its value is −0.5 (0.68).

Question: And the “UWDRS Part III-speech (0-4) LSM (SE) change from baseline” value ([1]; Week 120)?
Answer: The value was −0.2 (0.06).

Question: What about the “UWDRS Part III-speech (0-4) Mean (SD) change from baseline” value ([1]; Week 120) of the same substance?
Answer: Its value is −0.1 (0.61).

Question: What about the “Transformed CGI-I Mean (SD)” value ([1]; Week 120) of the same substance?
Answer: The value was −0.7 (0.92).

Question: What about the “CGI-S (1 to 7, 1 is normal) LSM (SE) change from baseline” value ([1]; Week 144) of the same substance?
Answer: Its value is −0.6 (0.12).

Question: And the “CGI-S (1 to 7, 1 is normal) Mean (SD) change from baseline” value ([1]; Week 144)?
Answer: Its value is −0.6 (0.78).

Question: And the “UWDRS Part II (0-40) LSM (SE) change from baseline” value ([1]; Week 144)?
Answer: The value was −2.0 (0.39).

Question: What about the “UWDRS Part II (0-40) Mean (SD) change from baseline” value ([1]; Week 144) of the same substance?
Answer: Its value is −2.0 (4.68).

Question: What about the “UWDRS Part III (0-175) LSM (SE) change from baseline” value ([1]; Week 144) of the same substance?
Answer: Its value is −6.38 (1.112).

Question: And the “UWDRS Part III (0-175) Mean (SD) change from baseline” value ([1]; Week 144)?
Answer: Its value is −5.99 (12.215).

Question: And the “UWDRS Part III functional subscale (0-10) LSM (SE) change from baseline” value ([1]; Week 144)?
Answer: The value was −0.489 (0.1046).

Question: What about the “UWDRS Part III functional subscale (0-10) Mean (SD) change from baseline” value ([1]; Week 144) of the same substance?
Answer: Its value is −0.573 (1.2617).

Question: And the “UWDRS Part III-arising from chair (0-4) LSM (SE) change from baseline” value ([1]; Week 144)?
Answer: The value was −0.2 (0.07).

Question: And the “UWDRS Part III-arising from chair (0-4) Mean (SD) change from baseline” value ([1]; Week 144)?
Answer: Its value is −0.3 (1.03).

Question: What about the “UWDRS Part III-gait (0-4) LSM (SE) change from baseline” value ([1]; Week 144) of the same substance?
Answer: Its value is −0.25 (0.186).

Question: What about the “UWDRS Part III-gait (0-4) Mean (SD) change from baseline” value ([1]; Week 144) of the same substance?
Answer: Its value is 0.00 (1.950).

Question: What about the “UWDRS Part III-handwriting (0-4) LSM (SE) change from baseline” value ([1]; Week 144) of the same substance?
Answer: Its value is −0.3 (0.08).

Question: And the “UWDRS Part III-handwriting (0-4) Mean (SD) change from baseline” value ([1]; Week 144)?
Answer: Its value is −0.5 (0.59).

Question: What about the “UWDRS Part III-speech (0-4) LSM (SE) change from baseline” value ([1]; Week 144) of the same substance?
Answer: The value was −0.3 (0.07).

Question: What about the “UWDRS Part III-speech (0-4) Mean (SD) change from baseline” value ([1]; Week 144) of the same substance?
Answer: Its value is −0.2 (0.59).

Question: What about the “Transformed CGI-I Mean (SD)” value ([1]; Week 144) of the same substance?
Answer: Its value is −0.7 (0.76).

Question: And the “Albumin Level” value ([2]; Study 201 (normal 33-49), Participant 9, Baseline)?
Answer: Its value is 29 mg/dL.

Question: What about the “Albumin Level” value ([2]; Study 201 (normal 33-49), Participant 9, Week 48) of the same substance?
Answer: Its value is 45 mg/dL.

Question: What about the “Albumin Level” value ([2]; Study 201 (normal 33-49), Participant 9, Week 150, early termination) of the same substance?
Answer: The value was 46 mg/dL.

Question: And the “Albumin Level” value ([2]; Study 201 (normal 33-49), Participant 10, Baseline)?
Answer: Its value is 29 mg/dL.

Question: And the “Albumin Level” value ([2]; Study 201 (normal 33-49), Participant 10, Week 48)?
Answer: Its value is 40 mg/dL.

Question: What about the “Albumin Level” value ([2]; Study 201 (normal 33-49), Participant 10, Week 98) of the same substance?
Answer: The value was 40 mg/dL.

Question: What about the “Albumin Level” value ([2]; Study 201 (normal 33-49), Participant 10, Week 163, early termination) of the same substance?
Answer: The value was 39 mg/dL.

Question: What about the “Albumin Level” value ([2]; Study 201 (normal 33-49), Participant 11, Baseline) of the same substance?
Answer: The value was 31 mg/dL.

Question: And the “Albumin Level” value ([2]; Study 201 (normal 33-49), Participant 11, Week 48)?
Answer: The value was 44 mg/dL.

Question: What about the “Albumin Level” value ([2]; Study 201 (normal 33-49), Participant 11, Week 98) of the same substance?
Answer: Its value is 46 mg/dL.

Question: And the “Albumin Level” value ([2]; Study 201 (normal 33-49), Participant 11, Week 150)?
Answer: The value was 44 mg/dL.

Question: What about the “Albumin Level” value ([2]; Study 205 (normal 35-55), Participant 12, Baseline) of the same substance?
Answer: The value was 36 mg/dL.

Question: What about the “Albumin Level” value ([2]; Study 205 (normal 35-55), Participant 12, Day 43) of the same substance?
Answer: The value was 33 mg/dL.

Question: What about the “Albumin Level” value ([2]; Study 205 (normal 35-55), Participant 12, Day 57) of the same substance?
Answer: Its value is 30 mg/dL.

Question: What about the “Albumin Level” value ([2]; Study 205 (normal 35-55), Participant 12, Day 169) of the same substance?
Answer: Its value is 34 mg/dL.

Question: What about the “Albumin Level” value ([2]; Study 205 (normal 35-55), Participant 12, Day 253) of the same substance?
Answer: Its value is 34 mg/dL.

Question: What about the “Albumin Level” value ([2]; Study 205 (normal 35-55), Participant 12, Day 337, early termination) of the same substance?
Answer: Its value is 37 mg/dL.

Question: And the “Albumin Level” value ([2]; Study 205 (normal 35-55), Participant 13, Baseline)?
Answer: Its value is 45 mg/dL.

Question: What about the “Albumin Level” value ([2]; Study 205 (normal 35-55), Participant 13, Day 345) of the same substance?
Answer: Its value is 27 mg/dL.

Question: What about the “Albumin Level” value ([2]; Study 301 (normal 35-55), Participant 1, Baseline) of the same substance?
Answer: The value was 33 mg/dL.

Question: What about the “Albumin Level” value ([2]; Study 301 (normal 35-55), Participant 1, Week 48) of the same substance?
Answer: The value was 47 mg/dL.

Question: And the “Albumin Level” value ([2]; Study 301 (normal 35-55), Participant 1, Week 96)?
Answer: Its value is 48 mg/dL.

Question: What about the “Albumin Level” value ([2]; Study 301 (normal 35-55), Participant 2, Baseline) of the same substance?
Answer: Its value is 37 mg/dL.

Question: And the “Albumin Level” value ([2]; Study 301 (normal 35-55), Participant 2, Week 48)?
Answer: The value was 34 mg/dL.

Question: What about the “Albumin Level” value ([2]; Study 301 (normal 35-55), Participant 2, Week 60, early termination) of the same substance?
Answer: The value was 25 mg/dL.

Question: What about the “Albumin Level” value ([2]; Study 301 (normal 35-55), Participant 3, Baseline) of the same substance?
Answer: The value was 34 mg/dL.

Question: And the “Albumin Level” value ([2]; Study 301 (normal 35-55), Participant 3, Week 48)?
Answer: The value was 36 mg/dL.

Question: And the “Albumin Level” value ([2]; Study 301 (normal 35-55), Participant 3, Week 60)?
Answer: The value was 34 mg/dL.

Question: And the “Albumin Level” value ([2]; Study 301 (normal 35-55), Participant 4, Baseline)?
Answer: Its value is 28 mg/dL.

Question: What about the “Albumin Level” value ([2]; Study 301 (normal 35-55), Participant 4, Week 48) of the same substance?
Answer: Its value is 31 mg/dL.

Question: And the “Albumin Level” value ([2]; Study 301 (normal 35-55), Participant 5, Baseline)?
Answer: The value was 32 mg/dL.

Question: And the “Albumin Level” value ([2]; Study 301 (normal 35-55), Participant 5, Week 48)?
Answer: Its value is 37 mg/dL.

Question: What about the “Albumin Level” value ([2]; Study 301 (normal 35-55), Participant 5, Week 96) of the same substance?
Answer: Its value is 37 mg/dL.

Question: What about the “Albumin Level” value ([2]; Study 301 (normal 35-55), Participant 6, Baseline) of the same substance?
Answer: The value was 29 mg/dL.

Question: What about the “Albumin Level” value ([2]; Study 301 (normal 35-55), Participant 6, Week 24) of the same substance?
Answer: Its value is 35 mg/dL.

Question: What about the “Albumin Level” value ([2]; Study 301 (normal 35-55), Participant 6, Week 48) of the same substance?
Answer: Its value is 42 mg/dL.

Question: What about the “Albumin Level” value ([2]; Study 301 (normal 35-55), Participant 6, Week 96) of the same substance?
Answer: Its value is 40 mg/dL.

Question: And the “Albumin Level” value ([2]; Study 301 (normal 35-55), Participant 7, Baseline (Week 48 Extension Day 1))?
Answer: The value was 42 mg/dL.

Question: And the “Albumin Level” value ([2]; Study 301 (normal 35-55), Participant 7, Week 8)?
Answer: Its value is 37 mg/dL.

Question: And the “Albumin Level” value ([2]; Study 301 (normal 35-55), Participant 7, Week 24)?
Answer: Its value is 36 mg/dL.

Question: What about the “Albumin Level” value ([2]; Study 301 (normal 35-55), Participant 7, Week 30) of the same substance?
Answer: The value was 35 mg/dL.

Question: And the “Albumin Level” value ([2]; Study 301 (normal 35-55), Participant 7, Week 48)?
Answer: The value was 35 mg/dL.

Question: And the “Albumin Level” value ([2]; Study 301 (normal 35-55), Participant 7, Week 144)?
Answer: The value was 37 mg/dL.

Question: And the “Albumin Level” value ([2]; Study 301 (normal 35-55), Participant 8, Baseline (Week 48 Extension Day 1))?
Answer: Its value is 42 mg/dL.

Question: And the “Albumin Level” value ([2]; Study 301 (normal 35-55), Participant 8, Week 120, early termination)?
Answer: The value was 32 mg/dL.

Question: What about the “participants with cirrhosis at baseline who experienced changes in albumin levels” value ([2]; of 102, Studies 301, 201, 205) of the same substance?
Answer: Its value is 13 participants.

Question: What about the “participants with cirrhosis at baseline whose albumin levels remained stable” value ([2]; of 102, Studies 301, 201, 205) of the same substance?
Answer: Its value is 89 participants.

Question: And the “participants with cirrhosis at baseline who maintained liver function (albumin levels)” value ([2]; of 102 participants)?
Answer: Its value is 87%.

Question: What about the “cirrhotic participants whose albumin levels returned to the normal range” value ([2]; of the 13 with changes in liver function) of the same substance?
Answer: The value was 7 participants.
